# Test results: US11654102B2, “Cosmetic composition comprising vetiver root extract” (GIVAUDAN SA, priority 2018, dated 2023)
# Assay: Solubility of zizanoic acid in water
# Assay type: physicochemical
# Details: in presence of the other substances present in the extract
compound,measurement,value
C=C1[C@H]2CC[C@H](C(=O)O)[C@@]23CC[C@H](C3)C1(C)C [zizanoic acid],solubility of zizanoic acid in water,improved
